# Reference: ChEMBL document CHEMBL1201862, “PubChem BioAssay data set” (2004)
#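 Briefly, cells in 96-well plates were exposed to five compound concentrations for 48 h, and endpoints were estimated by linear interpolation. GI50 = concentration required for 50% inhibition of growth.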 The source made the active and inactive calls. Cut-off read from the data, not from the text of the source: active = GI50 up to about 1.1 µM and inactive = higher.
# Columns and labels:
# Assay in all cases: growth of human tumour cells (NCI), 48 h
# [1] = system: 786-0
# [2] = system: BT-549
# [3] = system: EKVX
# [4] = system: HOP-92
# [5] = system: LOX IMVI
# [6] = system: MDA-MB-231
# [7] = system: MOLT-4
# [8] = system: NCI-H226
# [9] = system: NCI/ADR-RES
# [10] = system: RPMI-8226
# [11] = system: SK-MEL-2
# [12] = system: SNB-75
# [13] = system: SW-620
# [14] = system: UO-31
# [15] = system: CCRF-CEM
# [16] = system: HCC 2998
# [17] = system: HT-29
# [18] = system: DU-145
# [19] = system: Hs-578T
# [20] = system: MCF7
Compound,GI50 [1],GI50 [2],GI50 [3],GI50 [4],GI50 [5],GI50 [6],GI50 [7],GI50 [8],GI50 [9],GI50 [10],GI50 [11],GI50 [12],GI50 [13],GI50 [14],GI50 [15],GI50 [16],GI50 [17],GI50 [18],GI50 [19],GI50 [20]
O=CCC1CCCCC1,> 100 µM (inactive),> 100 µM (inactive),> 100 µM (inactive),> 100 µM (inactive),> 100 µM (inactive),> 100 µM (inactive),> 100 µM (inactive),> 100 µM (inactive),> 100 µM (inactive),> 100 µM (inactive),> 100 µM (inactive),> 100 µM (inactive),> 100 µM (inactive),> 100 µM (inactive),–,–,–,–,–,–
Cn1nc2ccc3nccc(NCCNCCO)c3c2n1,38.5 µM (inactive),–,–,36.3 µM (inactive),20.4 µM (inactive),–,5.56 µM (inactive),41.2 µM (inactive),–,26.9 µM (inactive),–,45.2 µM (inactive),29.4 µM (inactive),25.8 µM (inactive),> 100 µM (inactive),40.6 µM (inactive),20.5 µM (inactive),–,–,–
O=C(NC(Nc1ccc(F)c(Cl)c1)(C(F)(F)F)C(F)(F)F)C(C(F)(F)F)C(F)(F)F,30.5 µM (inactive),–,68.4 µM (inactive),29.2 µM (inactive),12 µM (inactive),28.3 µM (inactive),15 µM (inactive),24.1 µM (inactive),19.8 µM (inactive),20 µM (inactive),16.6 µM (inactive),–,22.1 µM (inactive),19.5 µM (inactive),22.1 µM (inactive),> 100 µM (inactive),21.9 µM (inactive),27.5 µM (inactive),17.6 µM (inactive),33 µM (inactive)
CC(NCc1c(O)ccc2c(-c3ccccc3)cc(=O)oc12)C(=O)O (stereo not drawn),> 100 µM (inactive),–,> 100 µM (inactive),86.1 µM (inactive),> 100 µM (inactive),> 100 µM (inactive),> 100 µM (inactive),> 100 µM (inactive),> 100 µM (inactive),> 100 µM (inactive),> 100 µM (inactive),> 100 µM (inactive),> 100 µM (inactive),> 100 µM (inactive),> 100 µM (inactive),> 100 µM (inactive),> 100 µM (inactive),> 100 µM (inactive),> 100 µM (inactive),> 100 µM (inactive)
COc1ccc(NC(=O)C2C(=O)N(c3ccc(OC)cc3)C(=O)/C2=N/O)cc1 (stereo not drawn),20.1 µM (inactive),–,32.2 µM (inactive),16.1 µM (inactive),57.8 µM (inactive),–,> 100 µM (inactive),23.8 µM (inactive),–,> 71.9 µM (inactive),32.2 µM (inactive),32.2 µM (inactive),> 61.9 µM (inactive),22.2 µM (inactive),> 100 µM (inactive),21 µM (inactive),38.6 µM (inactive),–,–,–
Cc1ccc(NC(=O)/C(Cl)=C(/Cl)C(=O)O)cc1,17.3 µM (inactive),–,16.1 µM (inactive),18.2 µM (inactive),17.1 µM (inactive),–,11.5 µM (inactive),31.8 µM (inactive),–,14.8 µM (inactive),14.6 µM (inactive),17.7 µM (inactive),15.1 µM (inactive),17.8 µM (inactive),2.12 µM (inactive),19.7 µM (inactive),18.3 µM (inactive),–,–,–
O=C(/C=C(\C(=O)c1cccs1)c1cccs1)c1ccc(C(=O)/C=C(\C(=O)c2cccs2)c2cccs2)cc1,> 100 µM (inactive),–,> 100 µM (inactive),–,–,> 100 µM (inactive),> 100 µM (inactive),> 100 µM (inactive),> 100 µM (inactive),> 100 µM (inactive),> 100 µM (inactive),> 100 µM (inactive),> 100 µM (inactive),> 100 µM (inactive),> 100 µM (inactive),> 100 µM (inactive),> 100 µM (inactive),> 100 µM (inactive),> 100 µM (inactive),> 100 µM (inactive)
NCCSC1(O)C(=O)c2ccccc2-c2ccccc21 (stereo not drawn),1.63 µM (inactive),–,1.66 µM (inactive),–,0.256 µM (active),0.483 µM (active),0.181 µM (active),1.33 µM (inactive),0.272 µM (active),0.0348 µM (active),1.61 µM (inactive),0.553 µM (active),1.52 µM (inactive),1.47 µM (inactive),0.158 µM (active),–,1.21 µM (inactive),1.06 µM (active),1.41 µM (inactive),1.83 µM (inactive)
COC(=O)C1Cc2c([nH]c3ccccc23)[C@H](CC(C)C)N1 (stereo partly drawn),> 100 µM (inactive),–,> 100 µM (inactive),> 100 µM (inactive),> 100 µM (inactive),–,> 100 µM (inactive),> 100 µM (inactive),–,> 100 µM (inactive),> 100 µM (inactive),97.5 µM (inactive),> 100 µM (inactive),> 100 µM (inactive),> 100 µM (inactive),> 100 µM (inactive),> 100 µM (inactive),–,–,–
CN(C)C(n1cc2c(c1)-c1ccc(Cl)cc1C(c1ccccc1F)=NC2)n1cc2c(c1)-c1ccc(Cl)cc1C(c1ccccc1F)=NC2,> 100 µM (inactive),–,> 100 µM (inactive),–,12 µM (inactive),> 100 µM (inactive),> 100 µM (inactive),13 µM (inactive),> 100 µM (inactive),> 100 µM (inactive),> 100 µM (inactive),24.7 µM (inactive),> 100 µM (inactive),97.3 µM (inactive),> 100 µM (inactive),82 µM (inactive),14.3 µM (inactive),54 µM (inactive),> 100 µM (inactive),64.3 µM (inactive)
CCCCCCCCCCSS(=O)(=O)c1ccc(C)cc1,6.1 µM (inactive),–,12.4 µM (inactive),12.9 µM (inactive),4.45 µM (inactive),–,2.03 µM (inactive),19 µM (inactive),–,3.41 µM (inactive),5.01 µM (inactive),2.3 µM (inactive),14.3 µM (inactive),15 µM (inactive),2.24 µM (inactive),17.5 µM (inactive),9.08 µM (inactive),–,–,–
[O-][S+](c1ccc(O)cc1)c1ccc(O)cc1,> 100 µM (inactive),–,> 100 µM (inactive),> 100 µM (inactive),> 100 µM (inactive),–,> 100 µM (inactive),> 100 µM (inactive),–,> 100 µM (inactive),> 100 µM (inactive),> 100 µM (inactive),> 100 µM (inactive),> 100 µM (inactive),> 100 µM (inactive),> 100 µM (inactive),> 100 µM (inactive),–,–,–
CCC(=N\NC(N)=S)/C(C)=N/O,> 100 µM (inactive),–,> 100 µM (inactive),> 100 µM (inactive),> 100 µM (inactive),> 100 µM (inactive),–,> 100 µM (inactive),> 100 µM (inactive),> 100 µM (inactive),> 100 µM (inactive),–,> 100 µM (inactive),62.1 µM (inactive),–,> 100 µM (inactive),> 100 µM (inactive),> 100 µM (inactive),> 100 µM (inactive),> 100 µM (inactive)
CN1CCC(O)(OC(=O)C(c2ccccc2)C2(O)CCCC2)CC1 (stereo not drawn),> 100 µM (inactive),–,> 100 µM (inactive),> 100 µM (inactive),> 100 µM (inactive),> 100 µM (inactive),> 100 µM (inactive),> 100 µM (inactive),> 100 µM (inactive),> 100 µM (inactive),> 100 µM (inactive),> 100 µM (inactive),> 100 µM (inactive),–,> 100 µM (inactive),> 100 µM (inactive),> 100 µM (inactive),> 100 µM (inactive),> 100 µM (inactive),> 100 µM (inactive)
C=C1C(=O)O[C@@H]2[C@H]1CC[C@H](C)[C@]1(O)CCC(=O)[C@@]21C [CORONOPILIN],> 10 µM (inactive),–,> 10 µM (inactive),> 10 µM (inactive),> 10 µM (inactive),–,> 10 µM (inactive),> 10 µM (inactive),> 10 µM (inactive),> 10 µM (inactive),> 10 µM (inactive),> 10 µM (inactive),> 10 µM (inactive),0.0094 µM (active),4.69 µM (inactive),> 10 µM (inactive),> 10 µM (inactive),–,> 10 µM (inactive),> 10 µM (inactive)
N#Cc1cc([N+](=O)[O-])ccc1NC(=O)C(=O)Nn1c(S)nc2ccccc2c1=O,> 100 µM (inactive),–,> 100 µM (inactive),> 100 µM (inactive),> 100 µM (inactive),–,–,> 100 µM (inactive),–,> 100 µM (inactive),–,> 100 µM (inactive),> 100 µM (inactive),> 100 µM (inactive),> 100 µM (inactive),> 100 µM (inactive),> 100 µM (inactive),–,–,–
Cc1cccc(C(C)C)c1NC(=O)CCl,53.8 µM (inactive),–,20.6 µM (inactive),28.6 µM (inactive),37.1 µM (inactive),–,63.7 µM (inactive),> 100 µM (inactive),–,86.7 µM (inactive),75.5 µM (inactive),33.7 µM (inactive),39.6 µM (inactive),> 100 µM (inactive),30.5 µM (inactive),29.6 µM (inactive),49.1 µM (inactive),–,–,–
COc1ccc(-c2oc(/C=N/c3ccccc3)c([N+](=O)[O-])c2-c2ccc(OC)c(OC)c2)cc1OC,> 100 µM (inactive),–,–,65.6 µM (inactive),> 100 µM (inactive),–,> 100 µM (inactive),> 100 µM (inactive),–,> 100 µM (inactive),–,> 100 µM (inactive),> 100 µM (inactive),> 100 µM (inactive),–,> 100 µM (inactive),> 100 µM (inactive),–,–,–
